# Patent US20100040630A1, “METHODS AND COMPOSITIONS FOR TREATING BONE LOSS” (priority 2008, published 2010)
# Key:
# [1] = tested on: patients with early rheumatoid arthritis; assay: Study J: cortical hand bone loss by digital X-ray radiogrammetry metacarpal cortical index (DXR-MCI); type: in vivo, human; details: for median percentage DXR-MCI change: change from baseline
# Experimental: Generally, the study included 768 patients with active RA for <3 years who were naïve to MTX. Clinical data collections and radiographic examinations of hands were performed at baseline, and after 26, 52 and 104 weeks of therapy. Hand bone loss was assessed by digital X-ray radiogrammetry (DXR), primarily as metacarpal cortical index (MCI), on the same radiographs used for joint damage assessments.
# (§1) The radiographic and clinical data from this 2-year, multi-centre, double-blind, randomised controlled study (Study J) was previously been described in detail (see Breedveld et al. (2006) Arthritis Rheum 54:26-37). The efficacy and safety of adalimumab plus MTX was compared with adalimumab monotherapy and with MTX monotherapy for 799 adult patients with early (<3 years), aggressive RA (mean erosion score of approximately 12 Sharp units, estimated annual TSS progression of approximately 27 Sharp units) who previously had not been treated with MTX, cyclophosphamide, cyclosporine, azathioprin or more than 2 other DMARDs (Breedveld et al. (2006), supra). […] Radiographs from hands and feet were scored according to a modified Sharp score (range 0-398) (Breedveld et al. (2006), supra).
# (§2) Digital X-ray radiogrammetry (DXR) (Sectra, Linkoping, Sweden) was used to measure hand bone mineral density (BMD) and metacarpal cortical index (MCI) on the same digitized hand X-rays used for assessment of radiographic joint damage. DXR is a computer version of the traditional radiogrammetry technique,[13] and have improved the method and its precision substantially. DXR has been described in detail.[14,15,16] On hand radiographs, the computer automatically recognizes regions of interest (ROI) around the narrowest part of the second, third, and fourth metacarpal bone and measures cortical thickness, bone width, and porosity 118 times per cm. DXR-BMD is defined as: c X VPAcomb X (1-p), where c is a constant (determined by the result that DXR-BMD, on average, is equal to the mid-distal forearm region of the Hologic QDR-2000 device); VPA is volume per area; and p is porosity. DXR-MCI is defined as the combined cortical thickness divided by the outer cortical diameter and is a relative bone measure independent of bone size, bone length, and image capture setting.[16.17] Both DXR-BMD and DXR-MCI provide substantial degrees of precision.[17]
# DXR-BMD was intended to be the main outcome measure in this study. However, many radiographs could not be analysed for BMD because of unknown image resolution. Generally, the equation for DXR-BMD is based on volume per area and requires a defined or known resolution, since a distance in a digitised radiograph cannot be measured when the resolution is unknown. Thus, DXR-MCI, which is a relative measure independent of image resolution, was used as the primary outcome measure. […] [19]
# (§3) To avoid bias regarding dominant vs. non-dominant hand and to achieve better accuracy, mean value measurements from both hands were used.[10] If the radiograph from one hand could not be analysed or were missing, the radiograph from the available hand for all analyses at the different time points was used.
# (§4) Since the data were not normally distributed, non-parametric analyses were conducted. No imputations were performed. Baseline values were compared between treatment groups with the Kruskall-Wallis method for continuous variables and with the chi-squared method for categorical variables. Comparisons of changes in hand BMD were conducted following methodologies parallel and similar to ones employed in the original Study J. Two groups were compared in a hierarchical order with the Mann-Whitney U test (i.e., two-sided comparison of the combination group vs. MTX, followed by two-sided comparisons between the monotherapy treatment arms, and finally two-sided comparisons between the adalimumab monotherapy and the combination group). Each pair-wise comparison was completed only if the previous comparison was statistically significant. […]
# [2] = tested on: patients with early rheumatoid arthritis; assay: Study J: hand bone mineral density by digital X-ray radiogrammetry (DXR-BMD); type: in vivo, human
# Description: as §1, §2
# For comparison, results for DXR-BMD are also provided. All images of unknown resolution were analyzed by assuming 254 dpi (the scanning resolution for the radiographs before scoring). Several of the radiographs were, however, clearly of a resolution other than 254 dpi, most likely because they had been printed in non-true size before scanning. All available images from baseline were analyzed, as well as 26, 52 and 104 weeks, by DXR-BMD and calculated mean metacarpal width. Based on analyses from other studies with a controlled resolution, [19] a deviation from baseline width greater than 2% was believed to likely indicate an incorrect value. With this 2% value as a cut-off, 23% of the radiographs were excluded from further DXR-BMD analyses. The flow chart in FIG. 1 illustrates the patients who were included in the DXR-MCI and DXR-BMD analyses.
# as §3
# as §4, with “significant. Bone loss over time was expressed as a negative value.” for “significant.”
# [3] = tested on: early (<3 yrs), active, MTX-naive RA patients; assay: Subanalysis of Study J: DXR-MCI hand bone loss by clinical response (DAS28 subgroups); type: in vivo, human; details: for Mean % DXR-MCI change / median % DXR-MCI change: baseline to 52 weeks
# Experimental: As described above, Study J compared the efficacy of adalimumab plus MTX vs. MTX alone and adalimumab alone in early (<3 yrs), active, MTX-naive RA patients. The subanalysis described herein involved the MTX monotherapy and the combination therapy groups. Hand bone loss was assessed by digital X-ray radiogrammetry metacarpal cortical index (DXR-MCI), calculated from digitized radiographs (DXR, Sectra, Sweden). […] MCI percentage change from baseline to 52 weeks was evaluated for patients with different clinical response. Disease activity was assessed by DAS28 scores at 52 weeks in 4 subgroups: Remission=DAS28<2.60; Low disease activity=DAS28 2.61-3.20; Moderate disease activity=DAS28 3.21-5.20; and high disease activity=DAS28>5.20. Non-parametric group comparisons were performed.
# [4] = tested on: patients with early rheumatoid arthritis; assay: Study J: radiographic joint damage, modified Sharp score; type: in vivo, human
# Description: as §1
# [5] = tested on: RA; details: 7.5 mg daily, compared with placebo; cited from earlier work
# [6] = tested on: RA patients; details: RA patients receiving infliximab; cited from earlier work
# [7] = High disease activity (DAS28>5.20)
# [8] = Low disease activity (DAS28 2.61-3.20)
# [9] = Moderate disease activity (DAS28 3.21-5.20)
Molecule,median percentage DXR-MCI change ([1]; 26 weeks),median percentage DXR-MCI change ([1]; 52 weeks),median percentage DXR-MCI change ([1]; 104 weeks),median DXR-BMD percentage change ([2]; 26 weeks),median DXR-BMD percentage change ([2]; 52 weeks),median DXR-BMD percentage change ([2]; 104 weeks),mean radiographic change in the modified Sharp score ([4]; 26 weeks),median radiographic change in the modified Sharp score ([4]; 26 weeks),mean radiographic change in the modified Sharp score ([4]; 52 weeks),median radiographic change in the modified Sharp score ([4]; 52 weeks),mean radiographic change in the modified Sharp score ([4]; 104 weeks),median radiographic change in the modified Sharp score ([4]; 104 weeks),further results
"CN(Cc1cnc2nc(N)nc(N)c2n1)c1ccc(C(=O)N[C@@H](CCC(=O)O)C(=O)O)cc1 [MTX, methotrexate]",−1.42%,−2.87%,−4.62%,−1.20%,−1.86%,−3.58%,3.4 units,1.0 units,5.1 units,2.0 units,6.4 units,2.0 units,"difference in bone loss among remission, low, moderate and high disease activity subgroups (in words) ([3]; 52 weeks): numerical differences; DXR-MCI percentage change ([3]; 52 weeks, pooled subgroup moderate and high disease activity (DAS28)): −4.65%; Mean % DXR-MCI change [3, 7]: −4.64%; median % DXR-MCI change [3, 7]: −3.02%; Mean % DXR-MCI change [3, 8]: −2.98%; median % DXR-MCI change [3, 8]: −2.20%; Mean % DXR-MCI change [3, 9]: −4.65%; median % DXR-MCI change [3, 9]: −3.33%; Mean % DXR-MCI change ([3]; Remission (DAS28<2.60)): −2.99%; median % DXR-MCI change ([3]; Remission (DAS28<2.60)): −2.14%"
C[C@]12C=CC(=O)C=C1CC[C@@H]1[C@@H]2[C@@H](O)C[C@@]2(C)[C@H]1CC[C@]2(O)C(=O)CO [prednisolone],,,,,,,,,,,,,rate of hand bone loss (in words) [5]: significantly reduce; rate of radiographic joint damage (in words) [5]: significantly reduce
adalimumab,−1.33%,−2.45%,−4.03%,−0.96%,−1.97%,−2.40%,2.1 units,0.5 units,3.3 units,0.5 units,4.8 units,1.0 units,"effect on hand bone loss (in words) ([1]; early RA, Study J): protected against hand bone loss; hand bone loss in relation to clinically assessed disease activity (in words) ([3]; 52 weeks, DAS28 subgroups): reduces hand bone loss independent of clinically assessed disease activity"
infliximab,,,,,,,,,,,,,bone loss in hip and spine (in words) [6]: arrested; hand bone loss (in words) [6]: hand bone loss was not halted
